Reference: ChEMBL document CHEMBL4145540 (Eur J Med Chem, 2018)
pIC50: −log10 of the molar value. Calls of active or inactive are those of the source. The calls are words filed in the database; no cut-off is given here.

What was measured:
[1] = test system: HT-29; assay: Antiproliferative activity against human HT-29 cells after 2 days by MTT assay; format: functional, cell-based; conditions: HT-29, 48 h
[2] = test system: MCF7; assay: Antiproliferative activity against human MCF7 cells after 2 days by MTT assay; format: functional, cell-based; conditions: MCF7, 48 h
[3] = test system: HeLa; assay: Antiproliferative activity against human HeLa cells after 2 days by MTT assay; format: functional, cell-based; conditions: 48 h
[4] = test system: A549; assay: Antiproliferative activity against human A549 cells after 2 days by MTT assay; format: functional, cell-based; conditions: A549, 48 h
[5] = test system: HL-60; assay: Antiproliferative activity against human HL60 cells after 2 days by MTT assay; format: functional, cell-based; conditions: HL-60, 48 h
[6] = test system: HMEC-1; assay: Antiproliferative activity against HMEC1 cells after 2 days by MTT assay; format: functional, cell-based; conditions: Homo sapiens, HMEC-1, 48 h
[7] = test system: HEK293; assay: Antiproliferative activity against HEK293 cells after 2 days by MTT assay; format: cell-based; conditions: Homo sapiens, HEK293, 48 h
[8] = test system: MDA-MB-231; assay: Antiproliferative activity against human MDA-MB-231 cells after 3 days by coulter counting method; format: functional, cell-based; conditions: MDA-MB-231, 72 h
[9] = Selectivity index, ratio of IC50 for antiproliferative activity against HEK293 cells to IC50 for antiproliferative activity against human MCF7 cells; format: toxicity, cell-based; conditions: HEK293 cells versus MCF7 cells, read-out: Ratio IC50
[10] = Selectivity index, ratio of IC50 for antiproliferative activity against HEK293 cells to IC50 for antiproliferative activity against human HT-29 cells; format: toxicity, cell-based; conditions: HEK293 cells versus HT-29 cells, read-out: Ratio IC50
[11] = Selectivity index, ratio of IC50 for antiproliferative activity against HEK293 cells to IC50 for antiproliferative activity against human HeLa cells; format: toxicity, cell-based; conditions: HEK293 cells versus HeLa cells, read-out: Ratio IC50
[12] = Selectivity index, ratio of IC50 for antiproliferative activity against HEK293 cells to IC50 for antiproliferative activity against human HL60 cells; format: toxicity, cell-based; conditions: HEK293 cells versus HL60 cells, read-out: Ratio IC50
[13] = species on record: Bos taurus; assay: Inhibition of calf brain tubulin polymerization after 60 mins by turbidimetric method
[14] = test system: A549; assay: Cell cycle arrest in human A549 cells assessed as accumulation at sub-G0 phase at 50 nM after 20 hrs by propidium iodide staining based flow cytometry (reference value: 6.6 +/- 0.1%); format: functional
[15] = test system: A549; assay: Disruption of microtubule network in human A549 cells assessed as appearance of tubulin aggregates at 200 nM after 16 hrs by Hoechst staining based immunofluorescence assay; format: cell-based
[16] = test system: A549; assay: Disruption of microtubule network in human A549 cells assessed as appearance of compressed and fragmented nuclei at 200 nM after 16 hrs by Hoechst staining based immunofluorescence assay; format: cell-based
[17] = test system: A549; assay: Cell cycle arrest in human A549 cells assessed as accumulation at G0/G1 phase at 50 nM after 20 hrs by propidium iodide staining based flow cytometry (reference value: 66 +/- 1%); format: functional
[18] = test system: A549; assay: Cell cycle arrest in human A549 cells assessed as accumulation at S phase at 50 nM after 20 hrs by propidium iodide staining based flow cytometry (reference value: 16 +/- 1%); format: functional
[19] = test system: A549; assay: Cell cycle arrest in human A549 cells assessed as accumulation at G2/M phase at 50 nM after 20 hrs by propidium iodide staining based flow cytometry (reference value: 11 +/- 1%); format: functional
[20] = test system: A549; assay: Induction of apoptosis in human A549 cells at 100 nM after 24 hrs by Annexin V-FITC/propidium iodide staining based flow cytometry (reference value: 28%); format: functional
[21] = test system: A549; assay: Induction of apoptosis in human A549 cells at 10 nM after 24 hrs by Annexin V-FITC/propidium iodide staining based flow cytometry (reference value: 28%); format: functional
[22] = test system: A549; assay: Induction of apoptosis in human A549 cells after 24 hrs by Annexin V-FITC/propidium iodide staining based flow cytometry; format: functional, cell-based
[23] = test system: A549; assay: Disruption of microtubule network in human A549 cells assessed as appearance of tubulin aggregates at 300 nM after 16 hrs by Hoechst staining based immunofluorescence assay; format: cell-based
[24] = test system: A549; assay: Disruption of microtubule network in human A549 cells assessed as appearance of compressed and fragmented nuclei at 300 nM after 16 hrs by Hoechst staining based immunofluorescence assay; format: cell-based
[25] = test system: A549; assay: Cell cycle arrest in human A549 cells assessed as accumulation at sub-G0 phase at 75 nM after 20 hrs by propidium iodide staining based flow cytometry (reference value: 6.6 +/- 0.1%); format: functional
[26] = test system: A549; assay: Cell cycle arrest in human A549 cells assessed as accumulation at G0/G1 phase at 75 nM after 20 hrs by propidium iodide staining based flow cytometry (reference value: 66 +/- 1%); format: functional
[27] = test system: A549; assay: Cell cycle arrest in human A549 cells assessed as accumulation at S phase at 75 nM after 20 hrs by propidium iodide staining based flow cytometry (reference value: 16 +/- 1%); format: functional
[28] = test system: A549; assay: Cell cycle arrest in human A549 cells assessed as accumulation at G2/M phase at 75 nM after 20 hrs by propidium iodide staining based flow cytometry (reference value: 11 +/- 1%); format: functional
[29] = species on record: Bos taurus; assay: Inhibition of calf brain tubulin polymerization in glycerol-assembly buffer assessed as critical concentration for tubulin assembly at 27.5 uM measured every 30 secs for 2 hrs in presence of GTP
[30] = test system: A549; assay: Disruption of microtubule network in human A549 cells assessed as appearance of tubulin aggregates at 230 nM after 16 hrs by Hoechst staining based immunofluorescence assay; format: cell-based
[31] = test system: A549; assay: Disruption of microtubule network in human A549 cells assessed as appearance of compressed and fragmented nuclei at 230 nM after 16 hrs by Hoechst staining based immunofluorescence assay; format: cell-based
[32] = test system: A549; assay: Cell cycle arrest in human A549 cells assessed as accumulation at sub-G0 phase at 60 nM after 20 hrs by propidium iodide staining based flow cytometry (reference value: 6.6 +/- 0.1%); format: functional
[33] = test system: A549; assay: Cell cycle arrest in human A549 cells assessed as accumulation at G0/G1 phase at 60 nM after 20 hrs by propidium iodide staining based flow cytometry (reference value: 66 +/- 1%); format: functional
[34] = test system: A549; assay: Cell cycle arrest in human A549 cells assessed as accumulation at S phase at 60 nM after 20 hrs by propidium iodide staining based flow cytometry (reference value: 16 +/- 1%); format: functional
[35] = test system: A549; assay: Cell cycle arrest in human A549 cells assessed as accumulation at G2/M phase at 60 nM after 20 hrs by propidium iodide staining based flow cytometry (reference value: 11 +/- 1%); format: functional
[36] = test system: HMEC-1; assay: Vascular disruptive activity in HMEC1 cells assessed as disruption of preformed tubular networks after 4 hrs by matrigel based assay; format: functional, cell-based; conditions: Homo sapiens
[37] = test system: A549; assay: Disruption of microtubule network in human A549 cells assessed as appearance of tubulin aggregates at 150 nM after 16 hrs by Hoechst staining based immunofluorescence assay; format: cell-based
[38] = test system: A549; assay: Disruption of microtubule network in human A549 cells assessed as appearance of compressed and fragmented nuclei at 150 nM after 16 hrs by Hoechst staining based immunofluorescence assay; format: cell-based
[39] = test system: A549; assay: Cell cycle arrest in human A549 cells assessed as accumulation at sub-G0 phase at 40 nM after 20 hrs by propidium iodide staining based flow cytometry (reference value: 6.6 +/- 0.1%); format: functional
[40] = test system: A549; assay: Cell cycle arrest in human A549 cells assessed as accumulation at G0/G1 phase at 40 nM after 20 hrs by propidium iodide staining based flow cytometry (reference value: 66 +/- 1%); format: functional
[41] = test system: A549; assay: Cell cycle arrest in human A549 cells assessed as accumulation at S phase at 40 nM after 20 hrs by propidium iodide staining based flow cytometry (reference value: 16 +/- 1%); format: functional
[42] = test system: A549; assay: Cell cycle arrest in human A549 cells assessed as accumulation at G2/M phase at 40 nM after 20 hrs by propidium iodide staining based flow cytometry (reference value: 11 +/- 1%); format: functional
[43] = test system: MDA-MB-231; assay: Inhibition of EBI binding to beta-tubulin colchicine binding site in human MDA-MB-231 cells at 3 uM preincubated for 16 hrs followed by EBI addition and measured after 1.5 hrs by Western blot analysis; format: cell-based
[44] = test system: A549; assay: Cell cycle arrest in human A549 cells assessed as accumulation at sub-G0 phase at 70 nM after 20 hrs by propidium iodide staining based flow cytometry (reference value: 6.6 +/- 0.1%); format: functional
[45] = test system: A549; assay: Cell cycle arrest in human A549 cells assessed as accumulation at S phase at 70 nM after 20 hrs by propidium iodide staining based flow cytometry (reference value: 16 +/- 1%); format: functional
[46] = test system: A549; assay: Cell cycle arrest in human A549 cells assessed as accumulation at G2/M phase at 70 nM after 20 hrs by propidium iodide staining based flow cytometry (reference value: 11 +/- 1%); format: functional

Row | SMILES | pIC50 [1] | pIC50 [2] | pIC50 [3] | pIC50 [4] | pIC50 [5] | pIC50 [6] | pIC50 [7] | pIC50 [8] | inhibition [13] | Activity [14] [%] | Activity [17] [%] | Activity [18] [%] | Activity [19] [%] | Activity [20] [%] | Activity [21] [%] | Activity [22] | Activity [36] | other results
1 | COc1ccc(/C=C\c2cc(OC)c(OC)c(OC)c2)cc1NC(=O)Oc1cccc(Cl)c1 | 8.04 | 8.36 | 8.32 | 7.00 | 7.87 | 8.05 | 7.84 | 7.82 | Active | 16 | 30 | 10 | 44 | 93 | 29 | Dose-dependent effect |  | selectivity ratio [9]: 2 to 11; selectivity ratio [10]: 2 to 11; selectivity ratio [11]: 2 to 11; selectivity ratio [12]: 2 to 11; Activity [15]: Active; Activity [16]: Active
2 | COc1ccc(/C=C\c2cc(OC)c(OC)c(OC)c2)cc1NC(=O)Oc1cccc(F)c1 | 7.97 | 8.15 | 8.57 | 6.82 | 7.22 | 7.70 | 7.88 | 7.83 | Active |  |  |  |  | 67 | 26 | Dose-dependent effect |  | Activity [23]: Active; Activity [24]: Active; Activity [25]: 19%; Activity [26]: 29%; Activity [27]: 10%; Activity [28]: 43%
3 | COc1ccc(/C=C\c2cc(OC)c(OC)c(OC)c2)cc1O [COMBRETASTATIN A4] |  |  | 5.68 | 6.89 | 5.40 | 5.47 |  |  | Active | 15 | 21 | 22 | 43 |  |  |  |  | Activity [29]: 22 µM
4 | COc1ccc(/C=C\c2cc(OC)c(OC)c(OC)c2)cc1N | 7.66 | 8.10 | 8.59 | 6.93 | 8.35 | 7.92 | 8.15 | 7.92 | Active |  |  |  |  | 62 | 56 | Dose-dependent effect | Dose-dependent effect | Activity [30]: Active; Activity [31]: Active; Activity [32]: 14%; Activity [33]: 21%; Activity [34]: 24%; Activity [35]: 41%
5 | COc1ccc(/C=C\c2cc(OC)c(OC)c(OC)c2)cc1NC(=O)Oc1ccccc1 | 8.54 | 8.01 | 8.32 | 7.11 | 8.40 | 7.92 | 8.48 | 7.93 |  |  |  |  |  | 91 | 45 | Dose-dependent effect |  | Activity [37]: Active; Activity [38]: Active; Activity [39]: 20%; Activity [40]: 21%; Activity [41]: 15%; Activity [42]: 44%
6 | COc1ccc(/C=C\c2cc(OC)c(OC)c(OC)c2)cc1NC(=O)Oc1ccc(Cl)c(C)c1 | 7.94 | 8.09 | 8.48 | 6.85 | 9.40 | 8.15 | 8.08 | 8.40 | Active |  |  |  |  | 90 | 41 | Dose-dependent effect | Dose-dependent effect | inhibition [43]: Active; Activity [44]: 18%; Activity [45]: 22%; Activity [46]: 36%
